# Experimental data taken from patent US7553845B2, “Substituted indolizine 1,2,3,6,7,8 derivatives, FGFs inhibitors, a method for the preparation thereof and pharmaceutical compositions containing said derivatives” (sanofi-aventis, priority 2003, dated 2009).
# Structures can show the parent of a compound that is named as a salt.
# System: not given
# Test: not given
# Settings: not given
row,melting point,Structure (SMILES)
1,125 °C,COC(=O)c1c(C)c(C(=O)c2ccc([N+](=O)[O-])c(OC)c2)n2cccc(OCc3ccccc3)c12
2,211 °C,COC(=O)c1ccc2c(OC)c(C)c(C(=O)c3ccc([N+](=O)[O-])c(OC)c3)n2c1
3,150 °C,COC(=O)c1c(C)c(C(=O)c2ccc([N+](=O)[O-])c(OC)c2)n2cccc(O)c12
4,179 °C,COC(=O)c1c(C)c(C(=O)c2ccc([N+](=O)[O-])c(OC)c2)n2cc(OCc3ccccc3)ccc12
5,267 °C,COc1ccc(-c2c(C)c(C(=O)c3ccc([N+](=O)[O-])c(OC)c3)n3cc(C(N)=O)ccc23)cc1
6,162 °C,COC(=O)c1cc(C(=O)c2c(C)c(-c3cccs3)c3ccccn23)ccc1N
7,136 °C,CCOC(=O)COc1cccn2c(C(=O)c3ccc(N)c(OC)c3)c(C)c(C(=O)OC)c12
8,193 °C,COC(=O)c1ccc2c(OC)c(C)c(C(=O)c3ccc(N)c(OC)c3)n2c1
9,219 °C,COc1cc(C(=O)c2c(C)c(-c3cccs3)c3ccccn23)ccc1N (as salt: HCl) (hydrate or solvate)
10,318 °C,COc1ccc2c(OC)c(C)c(C(=O)c3ccc(N)c(C(=O)O)c3)n2c1 (as salt: Na) (hydrate or solvate)
11,209 to 219 °C,CNc1ccn2c(C(=O)c3ccc(N)c(OC)c3)c(C)c(C(=O)O)c2c1 (as salt: Na) (hydrate or solvate)
12,222 to 227 °C,COc1cc(C(=O)c2c(C)c(C(=O)O)c3cc(N(C)C)ccn23)ccc1N (as salt: Na) (hydrate or solvate)

# System: circulating platelet level
# Test: Effect on thrombopenia induced by carboplatin in mice
# Format: in vivo
# Settings: carboplatin 150 mg/kg intraperitoneally, balbC mice, at nadir
# Excerpt: Thrombopenia remains a pathology for which there are few effective treatments apart from the transfusion of platelet concentrates and thrombopoietin (Kaushansky, K. New Eng J Med (1998), 339, pp 746-754).
# Anticancer chemotherapy constitutes one of the major causes of thrombopenia. One of the agents for chemotherapy, carboplatin, has been widely used to induce thrombopenia in mice and to thus be able to characterize the effect of compounds capable of improving the platelet level such as for example thrombopoietin (Hokom M M et al., Blood (1995), 86, pp 4486-4492).
# 150 mg/kg of carboplatin were administered intraperitoneally to balbC mice weighing 20 g. A blood sample was collected periodically by retro-orbital puncture and the circulating platelet level is determined by a haematology automated machine (MS9™ from Melet-Schloesing Laboratoires, Cergy-Pontoise, France). Under these conditions, a reversible thrombopenia is observed with a nadir situated 9 to 10 days after the administration of carboplatin (reduction in the circulating platelet level by 50-60%).
# The compounds according to the invention or their solvent (a blank—control) are administered orally for 5 days by starting the treatment 7 days before the administration of carboplatin. The experiments were carried out on groups comprising 10-12 mice and the results are expressed as a mean±standard error. […]
row,Structure (SMILES),reduction in the circulating platelet level
1,N.N.O=C([O-])C1(C(=O)[O-])CCC1.[Pt+2] [carboplatin],50-60%
